Reference: patent publication US20250290915A1, “METHOD FOR PREDICTING RESPONSIVENESS TO THERAPY” (CANCERTAIN LIMITED, priority 2022, published 2025)

Legend:
Type in all cases: cell-based, human
[1] = system: Circulating Tumour Cells (CTCs) from a patient with lung cancer (adenocarcinoma); experiment: Drug response score assay on CTCs (with CD45+ cells for immunotherapy) from blood, Example 5; conditions: lung cancer CTCs; for Drug sensitivity as calculated by the assay (interpretation of Drug Response Scores): Table 17
Experimental: (§1) CD45^+ cells and circulating tumour cells (CTCs) were isolated from a blood sample provided by each subject.
(§2) CD45 separation was performed by adding human CD45 microbeads (50 μl/ml blood), incubating for 15 minutes at 4° C. and then processing using an AutoMACS machine. This separates the blood sample into CD45^+ and CD45^−cells in 2 separate falcons. The falcon tubes are then centrifuged at 1200 rpm for 5 minutes.
(§3) The supernatant was removed from the CD45^+falcon tube, and the cells resuspended in DMEM with 2 μl Cell Tox, 2 μl MT and 2 μl MT. 20 μl of the resuspended CD45^+ cells was then plated in each well which will contain an immunotherapy treatment.
(§4) The supernatant was removed from the CD45^−falcon tube, and the CD45^−cells contacted with 100 μl of FcR block and 100 μl of CD326 (EpCAM) MicroBeads, followed by incubation at […] 4° C. for 30 minutes. The CD45^−cells were then processed using an AutoMACS machine to separate the EpCAM positive and negative cells into 2 separate falcon tubes. The EpCAM-cells were discarded. The supernatant was removed from the EpCAM^+ cells, and the cells resuspended in DMEM with 2 μl Cell Tox, 2 μl MT and 2 μl MT. 20 μl of the resuspended pellet was then added to all sample wells excluding a blank. After all wells are added to, a cell count was conducted on the […] to determine the number of circulating tumour cells (CTCs).
(§5) The different cell types were each divided equally into populations, depending on the number of drugs/concentrations to be tested and plated on a cell-culture plate pre-coated with a scaffold of polycaprolactone (PCL) electrospun fibres and incubated at 37° C., 5% CO2, for 5 to (typically 10) minutes to facilitate cell attachment. After attachment, an initial imaging step was carried out using the RealTime-Glo™ MT assay from Promega (Catalogue No. G9711)) and the CellTox™ Green Cytotoxicity Assay (Promega, Catalogue No. G8741), carried out according to manufacturer's instructions. Following this initial imagining, the immunotherapeutic and/or chemotherapeutic agents were added to the cell populations as indicated below. After 10 minutes, the imagining step was repeated. The cell populations were then incubated at 37° C., 5% CO2 for 48 hours. The imaging step was then repeated. The cell populations were then re-dosed with the same immunotherapeutic and/or chemotherapeutic agents as indicated below, and incubated at 37° C., 5% CO2 for a further 48 hours. After this second 48 hour incubation, the imagining step was repeated for a final time.
(§6) At the end of this culture period, dose response scores were calculated using a normalized drug response metric as described in Gupta et al. (Communications Biology volume 3, Article number: 42 (2020), https://doi.org/10.1038/s42003-020-0765-z). The start readout for a given immunotherapeutic or chemotherapeutic agent at a given concentration was the to readout for said immunotherapeutic or chemotherapeutic agent at a specified concentration. The end readout for a given immunotherapeutic or chemotherapeutic agent at a given concentration was the final timepoint reading (t96h) for said immunotherapeutic or chemotherapeutic agent at a specified concentration.
(§7) The positive control start readout for a given drug/concentration was the to readout for the corresponding drug at a specified concentration. The positive control end readout for the corresponding drug at a specified concentration was the final timepoint reading (t96h) for the corresponding blank well.
(§8) The negative control start and end readouts for a given immunotherapeutic or chemotherapeutic agent at a given concentration were the to and final timepoint reading (t96h) respectively for blank cell or blank immuno cell well respectively.
(§9) The sensitivity or resistance of a subject's cancer to a given immunotherapeutic or chemotherapeutic agent was determined based on the calculated drug response score as shown in Table 2. […]

[2] = system: cancer cells derived from the tissue sample of a patient with osteosarcoma; experiment: Drug response score assay on tissue sample, Example 10; set-up: key to Drug response score, conc. 1 / Drug response score, conc. 2 / Drug response score, conc. 3 / Drug response score, conc. 4: normalized drug response metric per Gupta et al. 2020; conditions: for Drug response score, conc. 1 / Drug response score, conc. 2 / Drug response score, conc. 3 / Drug response score, conc. 4: tissue sample; for Drug response score, conc. 1: conc. 1 per Table 31: Etop 1, DTIC 1.5, Ifos 0.125, Doce 0.02, Irinotecan 5 μg/ml; for Drug response score, conc. 2: conc. 2 per Table 31: Etop 4, DTIC 3, Ifos 0.25, Doce 0.2, Irinotecan 10 μg/ml; for Drug response score, conc. 3: conc. 3 per Table 31: Etop 20, DTIC 6, Ifos 5, Doce 2, Irinotecan 25 μg/ml; for Drug response score, conc. 4: conc. 4 per Table 31: Etop 100, DTIC 12, Ifos 10, Doce 10, Irinotecan 50 μg/ml
Experimental: (§10) Where a tissue sample was provided by each subject, cancer stem cells (CSCs, CD133^+), were isolated from said sample. Tumour marker cells were further isolated from each tissue sample. The remaining cells were designated tumour marker^+ cells.
(§11) First, disaggregation of the tissue samples was carried out. Disaggregation was dependent on the size of the tissue sample and the method of retrieval: • EBUS (Endobronchial Ultrasound Scan and Biopsy)—very small fragments of tissue in solution-spun at 1200 rpm for 5 minutes to collect tissue pellet • Bronchoscopy-larger fragments with larger amount of blood vessels • Broncho-lavage-similar to EBUS, spun at 1200 rpm for 5 minutes to collet tissue pellet
(§12) Once a pellet of tissue obtained, DMEM added to the tissue pellet and the material forced through a […] Smart strainer. Once a cell suspension was achieved, this was spun at 1200 rpm for 5 minutes and the supernatant removed. The cells were then resuspended to a volume of 60 μl.
(§13) 20 μl of FcR block and 20 μl of CD133 microbeads were added to the resuspended cells, followed by incubation for 15 minutes at 4° C. The cells were then processed using an AutoMACS machine. This separates the […] into CD133^+ and CD133^− cells in 2 separate falcons. The falcon tubes are then centrifuged at 1200 rpm for 5 minutes.
(§14) The supernatant was removed from the CD133+falcon tube, and the cells resuspended in DMEM with 2 μl Cell Tox, 2 μl MT and 2 μl MT. 20 μl of the resuspended […] was then plated in each well which will contain an immunotherapy treatment.
(§15) The supernatant was removed from the CD133^− falcon tube, and the CD133^− cells contacted with 40 μl of a tumour separation microbeads cocktail containing microbeads bound to anti-CD31, anti-CD45, anti-Glycophorin-A (Gly-A) and an anti-fibroblast antibody.
(§16) This cocktail is used to separate out tumour marker cells using MACS, by separating out CD31^+, CD45^+ and Gly-A^+ cells. In addition, anti-fibroblast antibody-labelled beads are also used. The cocktail is added to the CD133^− falcon tube, followed by incubation for 15 minutes at 4° C. MACS is carried out using an AutoMACS machine. This cells which are not bound by the CD31, CD45, Gly-A and anti-fibroblast antibody beads are the tumour marker^+ cells.
as §5
as §6, with “The end readout for a given immunotherapeutic or chemotherapeutic agent at a given concentration was the final timepoint reading (t96h) for said immunotherapeutic or chemotherapeutic agent at a specified concentration.” left out

[3] = system: Circulating tumour cells (CTCs) from a patient with GI cancer (Cholangio Carcinoma, stage 4); experiment: Drug response score assay on blood sample, Example 9
Experimental: as §1, §2, §3, §4, §5, §6, §7, §8, §9

[4] = system: Cancer Cells from tissue sample (CSCs, tumour marker+ cells) of a patient with GI cancer (Cholangio Carcinoma, stage 4); experiment: Drug response score assay on tissue sample, Example 9
Experimental: as §10, §11, §12, §13, §14, §15, §16, §5
as §6, with “The end readout for a given immunotherapeutic or chemotherapeutic agent at a given concentration was the final timepoint reading (t96h) for said immunotherapeutic or chemotherapeutic agent at a specified concentration.” left out

[5] = system: Circulating Tumour Cells (CTCs) from a patient with rectal cancer (anorectal carcinoma with secondary lung cancer); experiment: Drug response score assay on CTCs (with CD45+ cells for immunotherapy) from blood, Example 3
Experimental: as §1, §2, §3, §4, §5, §6, §7, §8, §9

In the case of C[C@@H](Oc1cc(-c2cnn(C3CCNCC3)c2)cnc1N)c1c(Cl)ccc(F)c1Cl [Crizotinib], the “effectiveness on Circulating Tumour Cells (CTCs) under laboratory conditions” value [1] is reported as “marginally more effective than other agents” and the “Drug sensitivity as calculated by the assay (interpretation of Drug Response Scores)” value [1] is reported as “S++”.
With CN(C)/N=N/c1[nH]cnc1C(N)=O [DTIC] the “Drug response score, conc. 1” value [2] was −0.7928, the “Drug response score, conc. 2” value [2] was 0.4035 and the “Drug response score, conc. 3” value [2] was −0.0520. For the same compound, the “Drug response score, conc. 4” value [2] was 0.1714.
With C#Cc1cccc(Nc2ncnc3cc(OCCOC)c(OCCOC)cc23)c1 [Erlotinib] the “effectiveness on Circulating Tumour Cells (CTCs) under laboratory conditions” value [1] was “relatively less effective compared rest of the agents” and the “Drug sensitivity as calculated by the assay (interpretation of Drug Response Scores)” value [1] was “S+”.
In the case of COc1cc2ncnc(Nc3ccc(F)c(Cl)c3)c2cc1OCCCN1CCOCC1 [Gefitinib], the “effectiveness on Circulating Tumour Cells (CTCs) under laboratory conditions” value [1] is reported as “relatively less effective compared rest of the agents” and the “Drug sensitivity as calculated by the assay (interpretation of Drug Response Scores)” value [1] is reported as “S+”.
CCc1c2c(nc3ccc(OC(=O)N4CCC(N5CCCCC5)CC4)cc13)-c1cc3c(c(=O)n1C2)COC(=O)[C@]3(O)CC [Irina] was tested, and the “Drug response score, conc. 1” value [2] was −0.0303, the “Drug response score, conc. 2” value [2] was −0.1454 and the “Drug response score, conc. 3” value [2] was 0.2672. The “Drug response score, conc. 4” value [2] was −0.0433.
In the case of CCc1c2c(nc3ccc(OC(=O)N4CCC(N5CCCCC5)CC4)cc13)-c1cc3c(c(=O)n1C2)COC(=O)[C@]3(O)CC [Irinotecan], the “effectiveness on Circulating Tumour Cells under laboratory conditions” value ([3]; GI cancer (Cholangio Carcinoma) blood sample) is reported as “S+”, the “Drug response score from blood sample, conc. 1” value ([3]; conc. 1 of each drug as in Table 27, blood sample, t96h) is reported as 0.1974 and the “Drug response score from blood sample, conc. 2” value ([3]; conc. 2 of each drug as in Table 27, blood sample, t96h) is reported as 0.3469. The “Drug response score from blood sample, conc. 3” value ([3]; conc. 3 of each drug as in Table 27, blood sample, t96h) was 0.6197, the “Drug response score from blood sample, conc. 4” value ([3]; conc. 4 of each drug as in Table 27, blood sample, t96h) was 0.5913 and the “Drug sensitivity as calculated by the assay, Blood” value ([3]; interpretation based on Drug Response Scores, blood sample) was “S+”. The “effectiveness on the cancer cells derived from the tissue sample under laboratory conditions” value ([2]; osteosarcoma tissue sample) was “show effectiveness”, the “Drug sensitivity as calculated by the assay (interpretation of Drug Response Scores)” value ([2]; osteosarcoma tissue sample, Table 33) was “Sensitive (S++)” and the “effectiveness on Cancer Cells from tissue sample under laboratory conditions” value ([4]; GI cancer (Cholangio Carcinoma) tissue sample) was “S+”. For the same compound, the “Drug sensitivity as calculated by the assay, Tissue” value ([4]; interpretation based on Drug Response Scores, tissue sample) was “S+”, the “Drug response score, conc. 1” value ([4]; tissue sample, conc. 1 per Table 27B: Pem 20, Niv 20, Atez 100, Pacli 0.05, Irino 5, Beva 1 μg/ml, Len 50, 5-FU 250 ng/ml) was 0.887 and the “Drug response score, conc. 2” value ([4]; tissue sample, conc. 2 per Table 27B: Pem 40, Niv 40, Atez 200, Pacli 0.1, Irino 10, Beva 2 μg/ml, Len 100, 5-FU 500 ng/ml) was 0.9135. For the same compound, the “Drug response score, conc. 3” value ([4]; tissue sample, conc. 3 per Table 27B: Pem 100, Niv 80, Atez 400, Pacli 0.2, Irino 25, Beva 4 μg/ml, Len 200, 5-FU 1000 ng/ml) was 0.8742 and the “Drug response score, conc. 4” value ([4]; tissue sample, conc. 4 per Table 27B: Pem 160, Niv 160, Atez 800, Pacli 1, Irino 50, Beva 8 μg/ml, Len 400, 5-FU 2000 ng/ml) was 0.8612.
For CNC(=O)c1cc(Oc2ccc(NC(=O)Nc3ccc(Cl)c(C(F)(F)F)c3)c(F)c2)ccn1 [Regorafinib], the “Drug response score, conc. 1” value ([5]; conc. 1: Pembro 20 μg/ml, Nivo 20 μg/ml (CTCs + CD45+ cells), Lenva 50 ng/ml, Regor 60 μg/ml (CTCs), t96h) was 0.9681, the “Drug response score, conc. 2” value ([5]; conc. 2: Pembro 40 μg/ml, Nivo 40 μg/ml (CTCs + CD45+ cells), Lenva 100 ng/ml, Regor 80 μg/ml (CTCs), t96h) was 0.9212 and the “Drug response score, conc. 3” value ([5]; conc. 3: Pembro 100 μg/ml, Nivo 80 μg/ml (CTCs + CD45+ cells), Lenva 200 ng/ml, Regor 120 μg/ml (CTCs), t96h) was 0.7424. For the same compound, the “Drug response score, conc. 4” value ([5]; conc. 4: Pembro 160 μg/ml, Nivo 160 μg/ml (CTCs + CD45+ cells), Lenva 400 ng/ml, Regor 160 μg/ml (CTCs), t96h) was −0.7024, the “effectiveness on Circulating Tumour Cells under laboratory conditions” value ([5]; rectal cancer CTCs) was “Sensitive S+” and the “Drug sensitivity as calculated by the assay (interpretation of Drug Response Scores)” value ([5]; rectal cancer CTCs, Table 11) was “Sensitive (S+)”.
